# Columns and labels:
# [1] = test system: Ileal inoculum (filtrate) of Yorkshire barrow; test: in vitro incubation with inoculum from cannulated swine (ileal); assay type: cell-based; settings: 5 hours at 37°
# Description: A Yorkshire barrow is surgically prepared either with an ileal cannula, which is placed 15 cm. from the ileo-ceco-colic junction, or a cecal cannula, which placed midway between the apex and origin of the cecum. The animal is fed 4 times daily to restrict intake to 4.5% of body weight in a 30 kg animal or 2.5% of body weight in a 100 kg animal. The swine grower ration is:
# Sampling of the material, via the cannula, begins 150-180 minutes following the first morning feeding and continues any time from 30-120 minutes thereafter, depending on the quantity of material needed. The sample is maintained in crushed ice, no cooler than 5°, and is gassed continuously with carbon dioxide. The collected material is filtered. The filtrate is the inoculum used for incubations of the test and control samples. […] Four blank control tubes, along with the test compound tubes, are incubated 5 hours at 37° with agitation. Four more killed tubes are included which are not incubated.
# The tubes are each treated with 0.60 ml of a 25% solution of metaphosphoric acid, then, stored at -4° until analysis. Samples are thawed and centrifuged for 25 minutes at 20,000 r.p.m. The supernatent liquid is decanted, sampled for gas chromatography and automatic analysis. The results are fed into a computer for finishing to give figures in which the blank control value is 100%. Virginiamycin is used as a positive control.
# *VFA refers to the total of volatile fatty acids, namely acetate,
# propionate, isobutyrate, butyrate, isovalerate and valerate. LYS is
# lysine, GLU is glucose and LAC is Llactic acid.
# C. albicans = test: chemotherapeutic activity, m.i.c. against C. albicans; assay type: cell-based; settings: Candida albicans
# E. coli = test: chemotherapeutic activity, m.i.c. against E. coli; assay type: cell-based; settings: Escherichia coli
# Staph. aureus = test: chemotherapeutic activity, m.i.c. against Staph. aureus; assay type: cell-based; settings: Staphylococcus aureus
# broiler chicks = test: Chick Growth Study; assay type: in vivo, chicken; settings: 8 reps (8/rep)
# Description: One day old broiler chicks, selected for weight, health and sex, are housed in an environmentally controlled room with temperature at 80° F. and humidity at 40%. Chicks are fed ad libitum. Water is offered ad libitum. A rye or corn basal ration is fed during the acclimation period (days 1 and 2), then, mixed with the compound under test or control conditions on days 3-17. Either 8 pens (64 chicks) or 16 pens (128 chicks) are used for each test or control group.
# B. Representative results using diethyl 1-(2-pyridinylthio)-1,2-hydrazinedicarboxylate, N-oxide: […]
# Strep. faecalis = test: chemotherapeutic activity, m.i.c. against Strep. faecalis; assay type: cell-based; settings: Enterococcus faecalis
# [2] = (3) positive control, 166.67 ppm
compound,measurement,setting,value
"CCOC(=O)NN(Sc1cccc[n+]1[O-])C(=O)OCC [diethyl 1-(2-pyridinylthio)-1,2-hydrazinedicarboxylate, N-oxide]",GLU (glucose),"[1]; (1), 1.67 ppm",166 % of control values
same,LAC (L-lactic acid),"[1]; (1), 1.67 ppm",91 % of control values
same,LYS (lysine),"[1]; (1), 1.67 ppm",109 % of control values
same,VFA (total volatile fatty acids),"[1]; (1), 1.67 ppm",91 % of control values
same,GLU (glucose),"[1]; (1), 16.67 ppm",237 % of control values
same,LAC (L-lactic acid),"[1]; (1), 16.67 ppm",81 % of control values
same,LYS (lysine),"[1]; (1), 16.67 ppm",152 % of control values
same,VFA (total volatile fatty acids),"[1]; (1), 16.67 ppm",72 % of control values
same,GLU (glucose),"[1]; (1), 166.7 ppm",379 % of control values
same,LAC (L-lactic acid),"[1]; (1), 166.7 ppm",54 % of control values
same,LYS (lysine),"[1]; (1), 166.7 ppm",194 % of control values
same,VFA (total volatile fatty acids),"[1]; (1), 166.7 ppm",47 % of control values
same,GLU (glucose),"[1]; (2), 166.67 ppm",845 % of control values
same,LAC (L-lactic acid),"[1]; (2), 166.67 ppm",139 % of control values
same,LYS (lysine),"[1]; (2), 166.67 ppm",110 % of control values
same,VFA (total volatile fatty acids),"[1]; (2), 166.67 ppm",55 % of control values
same,MIC,C. albicans,63 µg/mL
same,MIC,E. coli,63 µg/mL
same,MIC,Staph. aureus,2 µg/mL
same,"Weight, 17 day",broiler chicks; trial (1),102.0 % of Control
same,Dead,"broiler chicks; trial (1), 20 ppm in feed",1
same,"Feed/Gain, days 3-10","broiler chicks; trial (1), 20 ppm in feed",102.2 % of Control
same,"Feed/Gain, days 3-17","broiler chicks; trial (1), 20 ppm in feed",101.7 % of Control
same,"Feed/Gain, days 10-17","broiler chicks; trial (1), 20 ppm in feed",101.7 % of Control
same,"Weight, 10 day","broiler chicks; trial (1), 20 ppm in feed",96.4 % of Control
same,"Weight, 17 day","broiler chicks; trial (1), 20 ppm in feed",103.2 % of Control
same,Dead,"broiler chicks; trial (1), 40 ppm in feed",4
same,"Feed/Gain, days 3-10","broiler chicks; trial (1), 40 ppm in feed",103.3 % of Control
same,"Feed/Gain, days 3-17","broiler chicks; trial (1), 40 ppm in feed",98.4 % of Control
same,"Feed/Gain, days 10-17","broiler chicks; trial (1), 40 ppm in feed",95.0 % of Control
same,"Weight, 10 day","broiler chicks; trial (1), 40 ppm in feed",90.9 % of Control
same,Dead,"broiler chicks; trial (2), 20 ppm in feed",4
same,"Feed/Gain, days 3-10","broiler chicks; trial (2), 20 ppm in feed",96.8 % of Control
same,"Feed/Gain, days 3-17","broiler chicks; trial (2), 20 ppm in feed",96.4 % of Control
same,"Feed/Gain, days 10-17","broiler chicks; trial (2), 20 ppm in feed",96.5 % of Control
same,"Weight, 10 day","broiler chicks; trial (2), 20 ppm in feed",103.5 % of Control
same,"Weight, 17 day","broiler chicks; trial (2), 20 ppm in feed",103.4 % of Control
same,Dead,"broiler chicks; trial (3), 50 ppm in feed",0
same,"Feed/Gain, days 3-10","broiler chicks; trial (3), 50 ppm in feed",97.1 % of Control
same,"Feed/Gain, days 3-17","broiler chicks; trial (3), 50 ppm in feed",93.6 % of Control
same,"Feed/Gain, days 10-17","broiler chicks; trial (3), 50 ppm in feed",85.2 % of Control
same,"Weight, 10 day","broiler chicks; trial (3), 50 ppm in feed",93.2 % of Control
same,"Weight, 17 day","broiler chicks; trial (3), 50 ppm in feed",102.8 % of Control
same,MIC,Strep. faecalis,3 µg/mL
virginiamycin [reference compound],GLU (glucose),"[1]; (3) positive control, 1.67 ppm",393 % of control values
same,LAC (L-lactic acid),"[1]; (3) positive control, 1.67 ppm",0 % of control values
same,LYS (lysine),"[1]; (3) positive control, 1.67 ppm",99 % of control values
same,VFA (total volatile fatty acids),"[1]; (3) positive control, 1.67 ppm",255 % of control values
same,GLU (glucose),"[1]; (3) positive control, 16.7 ppm",464 % of control values
same,LAC (L-lactic acid),"[1]; (3) positive control, 16.7 ppm",12 % of control values
same,LYS (lysine),"[1]; (3) positive control, 16.7 ppm",141 % of control values
same,VFA (total volatile fatty acids),"[1]; (3) positive control, 16.7 ppm",114 % of control values
same,GLU (glucose),[1]; [2],496 % of control values
same,LAC (L-lactic acid),[1]; [2],14 % of control values
same,LYS (lysine),[1]; [2],144 % of control values
same,VFA (total volatile fatty acids),[1]; [2],86 % of control values

# Reference: patent US4463009A, “Dialkyl 1-(2-pyridinylthio)-1,2-hydrazinedicarboxylate, N-oxides and their use as animal growth stimulants” (priority 1983, dated 1984)
